{"source": "patent US20090118282A1", "about": "“Compounds and methods for treatment of amyloid-beta-peptide related disorders” (priority 2005, published 2009)", "note": "Counter-ions that a name gives are not always drawn."}
{"tested_on": "Aβ 40 production in HEK-293 cells overexpressing swAPP751", "test": "Inhibition of Aβ 40 production in HEK-293 cells overexpressing swAPP751 (sandwich ELISA)", "format": "cell-based", "conditions": "Homo sapiens, HEK293, 7 hours incubation", "experimental": "An exemplary assay for the analysis of inhibition of beta-secretase activity utilizes the human embryonic kidney cell line HEK-293 (ATCC Accession No. CRL-1573) stably transfected with APP751 containing the naturally occurring double mutation […] to Asn651Leu652 (numbered for APP751), commonly called the “Swedish mutation” and shown to overproduce Aβ 40 and Aβ 42 (Citron et. al., 1992, Nature 360:672-674). The cells were plated in 10 cm plates and in Dulbecco's Modified Eagle's medium (DMEM, Sigma D-6546) containing 10% fetal bovine serum. After cells are established (3 days post plating), cells are incubated in the presence/absence of the inhibitory compound (diluted in DMSO) at the desired concentration, generally from 0.2 to 20 μM, and with a final concentration of DMSO of 0.1%. Cells were incubated for 7 hours in the presence of phosphoramidon (1 μM) (Sigma). Media and cell lysates were collected, centrifuged, normalized to total protein and assayed for Aβ 40 and Aβ 42 by sandwich ELISA according to the manufacturer's instructions (Biosource International). For Aβ 42 detection, samples are concentrated on YM3 Microcon columns (Millipore). […] Aβ levels are determined by the difference between the Aβ values for the compound treatment and baseline periods. Dose response curves are plotted as percent inhibition versus compound concentration.", "units": {"IC50": "µM"}}
{"compound": "FC(F)(F)c1ccc2c(SCCCCCOc3ccc(CN4CCNCC4)cc3)ccnc2c1", "note": "[Compound 1, 4-(5-(4-((piperazin-1-yl)methyl)phenoxy)pentylthio)-7-(trifluoromethyl)quinoline trihydrochloride]", "IC50": 11.6}
{"compound": "CCN(CC)C(=O)N1CCN(Cc2ccc(OCCCCCSc3ccnc4cc(C(F)(F)F)ccc34)cc2)CC1", "note": "[Compound 2, 4-((4-(5-(7-(trifluoromethyl)quinolin-4-ylthio)pentyloxy)phenyl)methyl)-N,N-diethylpiperazine-1-carboxamide dihydrochloride]", "IC50": 2.4}
{"compound": "CC(C)(C)C(=O)N1CCN(Cc2ccc(OCCCCCSc3ccnc4cc(C(F)(F)F)ccc34)cc2)CC1", "note": "[Compound 3, 1-(4-((4-(5-(7-(trifluoromethyl)quinolin-4-ylthio)pentyloxy)phenyl)methyl)piperazin-1-yl)-2,2-dimethylpropan-1-one dihydrochloride]", "IC50": 1.9}
{"compound": "FC(F)(F)c1ccc2c(SCCCCCOc3ccc(CN4CCCCC4)cc3)ccnc2c1", "note": "[Compound 5, 4-(5-(4-((piperidin-1-yl)methyl)phenoxy)pentylthio)-7-(trifluoromethyl)quinoline dihydrochloride]", "IC50": 5.16}
{"compound": "FC(F)(F)c1ccc2c(SCCCCCOc3ccc(CN4CCOCC4)cc3)ccnc2c1", "note": "[Compound 8, 4-(5-(4-(morpholinomethyl)phenoxy)pentylthio)-7-(trifluoromethyl)quinoline dihydrochloride]", "IC50": 5.13}
{"compound": "FC(F)(F)c1ccc2c(SCCCCCOc3ccc(CN4CCCCC4)cc3Cl)ccnc2c1", "note": "[Compound 10, 4-(5-(2-Chloro-4-((piperidin-1-yl)methyl)phenoxy)pentylthio)-7-(trifluoromethyl)quinoline dihydrochloride]", "IC50": 8.5}
{"compound": "O=[N+]([O-])c1cc(CN2CCCCC2)ccc1OCCCCCSc1ccnc2cc(C(F)(F)F)ccc12", "note": "[Compound 11, 4-(5-(2-nitro-4-((piperidin-1-yl)methyl)phenoxy)pentylthio)-7-(trifluoromethyl)quinoline dihydrochloride]", "IC50": 2.45}
{"compound": "OCc1ccc(OCCCCCSc2ccnc3cc(C(F)(F)F)ccc23)cc1", "note": "[Compound 12, (4-(5-(7-(trifluoromethyl)quinolin-4-ylthio)pentyloxy)phenyl)methanol hydrochloride]", "IC50": 7.3}
{"compound": "Nc1cc(CN2CCCCC2)ccc1OCCCCCSc1ccnc2cc(C(F)(F)F)ccc12", "note": "[Compound 13, 2-(5-(7-(Trifluoromethyl)quinolin-4-ylthio)pentyloxy)-5-((piperidin-1-yl)methyl)benzenamine trihydrochloride]", "IC50": 8.26}
{"compound": "CCOC(=O)[C@H](Cc1ccc(OCCCCCSc2ccnc3cc(C(F)(F)F)ccc23)cc1)NC(C)=O", "note": "[Compound 14, (S)-ethyl 3-(4-(5-(7-(trifluoromethyl)quinolin-4-ylthio)pentyloxy)phenyl)-2-acetamidopropanoate hydrochloride]", "IC50": 0.72}
{"compound": "CCn1ncc2c(OCCCCCSc3ccnc4cc(C(F)(F)F)ccc34)ccnc21", "note": "[Compound 19, 4-(5-(1-Ethyl-1H-pyrazolo[3,4-b]pyridin-4-yloxy)pentylthio)-7-(trifluoromethyl)quinoline dihydrochloride]", "IC50": 15.5}
{"compound": "COc1cc(CN2CCOCC2)ccc1OCCCCCOc1ccnc2cc(Cl)ccc12", "note": "[Compound 22, 4-(5-(2-Methoxy-4-(morpholinomethyl)phenoxy)pentyloxy)-7-chloroquinoline dihydrochloride]", "IC50": 9.3}
{"compound": "Clc1ccc2c(OCCCCCOc3ccc(CN4CCOCC4)cc3)ccnc2c1", "note": "[Compound 23, 4-(5-(4-(morpholinomethyl)phenoxy)pentyloxy)-7-chloroquinoline dihydrochloride]", "IC50": 2.5}
{"compound": "COc1cc(CN2CCOCC2)ccc1OCCCCCSc1ccnc2cc(C(F)(F)F)ccc12", "note": "[Compound 24, 4-(5-(2-methoxy-4-(morpholinomethyl)phenoxy)pentylthio)-7-(trifluoromethyl)quinoline dihydrochloride]", "IC50": 9.9}
